Like-named read-outs stand apart in the source and are kept apart here.
Columns and labels:
[1] = cited from earlier work
[2] = Kinetic analysis of the CuAAC reaction (fluorogenic click with 7-ethynyl coumarin); settings: for effect of ring substituent on CuAAC reaction: 10 μM CuSO4, no ligand; for improvement in initial CuAAC rate over carbocyclic analog: 10 μM CuSO4, no accelerating ligand, 2 vs 1, 4 vs 3
Method: FIG. 4 is a graph illustrating in vitro analysis of CuAAC rates with chelating azides. A: A fluorogenic click reaction with 7-ethynyl coumarin was used to quantify CuAAC reaction progress. Zhou et al., JACS, 126:8862-8863 (2004). B: Various chelating azide structures tested and their CuAAC reaction yields after 10 min and 30 min. Reactions were run with 10 μM CuSO4 and no ligand (THPTA or BTTAA). C: Kinetic comparison of chelating azide 4 and its non-chelating benzyl counterpart 3 at different copper concentrations. CuAAC product was quantified using the assay in A), at 100, 40, and 10 μM CuSO4, both in the absence and presence of Cu(I) ligand THPTA. Measurements were performed in triplicate. Error bars, ±s.d.
Fluorescence was converted to coumarin triazole product quantity by comparison to standard curves, individually generated for each azide-coumarin alkyne adduct. Entries with less than 1% reaction yield (azides 1 and 3) are omitted from the plot. Measurements were performed in triplicate. Error bars, ±s.d.
General reaction conditions: 20 μM azide, 40 μM 7-ethynyl coumarin (A), and 4 mM sodium ascorbate in 100 mM sodium phosphate buffer at pH 7.4 at 25±1° C. 100 μM Tempol was added to each reaction to minimize Cu-dependent fluorescence quenching of 7-ethynyl coumarin and coumarin-triazoles. FIG. 4A.
Reactions were initiated by the addition of CuSO4: 10 μM for the azide compounds shown in FIG. 4B, and 10, 40, or 100 μM for the compounds shown in FIG. 4C. In FIG. 4C when THPTA was included, the THPTA:copper ratio was fixed at a 4:1 molar ratio. Coumarin fluorescence was recorded on a Tecan SAFIRE microplate reader at 2-min intervals for 30 min with excitation at 320 nm and emission detection at 430 nm. For each azide, the turn-on fluorescence of coumarin was correlated to % conversion to product using a calibration curve made from a mixture of known concentrations of 7-ethynyl coumarin and coumarin-triazole adduct of each azide, as follows:
Coumarin-triazole standards for azide 1, 2, 5, 6, and 7 (FIG. 4B) were generated from reacting 120 μM of each azide with 100 μM 7-ethynyl coumarin until 7-ethynyl coumarin was fully converted to the triazole adduct, using 100 μM CuSO4, 400 μM THPTA, and 4 mM sodium ascorbate. […] Such reaction mixture, now representing coumarin-triazole of a known concentration (100 μM), was then mixed with 7-ethynyl coumarin in defined ratios in the presence of 20-fold molar excess of EDTA relative to CuSO4, (which was carried over from the triazole generation reaction), to generate the calibration curve above.
Coumarin-triazole standards for azide 3 and 4 were generated from purified coumarin-triazole adducts for each azide (synthetic methods described below). Calibration curves were generated for azide 3 and 4 using coumarin-triazoles from crude reaction mixtures as described above, and found them to perform similarly to calibration curves generated from purified triazoles. FIG. 4C.

Wild-type LplA = target: T1, Wild-type LplA (Escherichia coli, UniProt P32099); settings: cited from earlier work
T1 construct: His6 (N); made in house; host or cells: E. coli

LAP-CFP-TM on HEK cells [3] = test: Enzyme-catalyzed azide ligation efficiencies at the cell surface (anti-lipoic acid antibody staining); format: cell-based, human; settings: for lipoylation of remaining LAP sites after azide labeling, relative to condition 3 (100%): 20 min azide ligation, picolyl azide 8 with W37VLplA, 8-azidooctanoic acid with wild-type LplA; for estimated extent of azide ligation: indirectly estimated from lipoylation extent, 20 min
Method: A: Labeling protocol. HEK cells expressing LAP-CFP-TM were labeled with picolyl azide 8 and W37VLplA, or 8-azidooctanoic acid and wild-type LplA, using the same exact conditions as in FIGS. 6 and 9. Thereafter, cells were washed and any remaining unmodified LAP sites were labeled under forcing conditions with lipoic acid (200 μM lipoic acid, 1 mM ATP, and 20 μM wild-type LplA for 20 min). Anti-lipoic acid antibody staining was used to quantify the extent of lipoylation, and CuAAC was performed thereafter with 20 μM Alexa Fluor® 647-alkyne, 100 μM CuSO4, and 500 μM BTTAA ligand for 5 min. Cells were imaged live. B: Representative confocal images. Results obtained using picolyl azide 8 (condition 2) are shown below results with 8-azidooctanoic acid (condition 1). A negative control with neither azide added during the LplA step is shown in the bottom row (condition 3). The Alexa Fluor® 647 channel reflects CuAAC labeling. The Alexa Fluor® 568 channel reflects anti-lipoic acid antibody labeling. The CFP channel showing LAP-CFP-TM expression is overlaid on DIC. Scale bars, 10 μm. C: Quantitation of data in (B). The mean intensities in all three channels were collected for >90 single cells for each condition. To compare the extents of lipoylation, the Alexa Fluor® 568/CFP ratios were calculated (to normalize for variations in LAP expression level), averaged, and plotted on the graph. CuAAC labeling extent was quantified in a similar way. Error bars, ±s.e.m. Due to the forcing conditions of the LplA-catalyzed lipoylation, we set condition 3 to represent 100% lipoylation extent for the cell surface LAP-CFP-TM population. By comparison, lipoylation after picolyl azide 8 labeling proceeds to 19% that of condition. Lipoylation after 8-azidooctanoic acid labeling proceeds to 37% that of condition 3. Based on these, we can indirectly estimate that picolyl azide 8 ligation proceeds to 81%, and 8-azidooctanoic acid ligation proceeds to 63%, under these conditions.
Live HEK cells were incubated with rabbit anti-lipoic acid antibody (Calbiochem) in cell growth medium at 1:300 dilution for 10 min at room temperature, followed by two washes with cell growth medium. Thereafter, cells were incubated with anti-rabbit secondary antibody conjugated to Alexa Fluor® 568 (Life Technologies) in cell growth medium at 1:300 dilution for 10 min at room temperature, followed by two washes with cell growth medium.

LAP-CFP-TM on HEK cells [4] = test: Two-step cell surface protein labeling, PRIME followed by CuAAC (Alexa Fluor 647/CFP ratio); format: cell-based, human
Method: FIG. 6 is a diagram showing comparison of protein labeling signals on live cells using PRIME and CuAAC, with and without chelating azides. Two-step site-specific protein labeling was performed as in FIG. 3B above and 9 below, on HEK cells expressing LAP-tagged cyan fluorescent protein fused to the transmembrane domain of the PDGF receptor (LAP-CFP-TM). In the first step, either W37VLplA was used to target picolyl azide 8 to LAP, or wild-type LplA was used to ligate non-chelating 8-azidooctanoic acid. The efficiencies of these two ligation reactions are compared in FIG. S5. In the second step, CuAAC was performed for 5 min with Alexa Fluor® 647-alkyne and CuSO4 (10, 40, or 100 μM) in combination with either THPTA or BTTAA ligand (provided in 5-fold excess relative to the CuSO4 concentration). To quantify labeling signals, the mean Alexa Fluor® 647 and mean CFP intensities were calculated for >90 cells for each condition, ratioed to normalize for variations in LAP-CFP-TM expression level, and averaged. Error bars, ±s.e.m.
A: Two-step site-specific cell surface protein labeling protocol. In the first step, HEK cells expressing LAP-CFP-TM (TM is the transmembrane helix of the PDGF receptor) were labeled with picolyl azide 8 using W37VLplA and ATP added to the cell medium for 20 min. Alternatively, LAP-CFP-TM was labeled with non-chelating azide 8-azidooctanoic acid using wild-type LplA. In the second step, CuAAC was performed for 5 min using Alexa Fluor® 647-alkyne, various concentrations of CuSO4 (10, 40, or 100 μM), and either THPTA or BTTAA ligand added in 4-fold excess of the CuSO4. B: Representative confocal cell images for twelve different conditions (three CuSO4 concentrations, either THPTA or BTTAA ligand, and either alkyl azide or picolyl azide). For each condition, the Alexa Fluor® 647 labeling channel and the CFP channel, overlaid on DIC, are shown. Insets show the Alexa Fluor® 647 channel at higher contrast. Scale bars, 10 μm.
LplA labeling was performed with picolyl azide 8,8-azidooctanoic acid, or 10-undecynoic acid. CuAAC was performed with either alkyne, picolyl azide, or alkyl azide conjugates to Alexa Fluor® 647. A: Representative images showing labeling of LAP-CFP-TM on the surface of live HEK cells under four different conditions. CFP channels are shown, along with Alexa Fluor® 647 labeling channels normalized to the same intensity range (bottom) or not normalized (middle). LplA labeling protocol for all four conditions: 200 μM azide or alkyne substrate, 10 μM LplA (wild-type or mutant), 1 mM ATP, and 5 mM Mg(OAc)2 in cell culture medium for 20 min. […] B: Quantitation of data in (A). Average Alexa Fluor® 647/CFP intensity ratios were calculated for ˜50 single cells from each condition. […]

[5] = conjugation to LAP, previously reported

T1 sequence (P32099 2-338): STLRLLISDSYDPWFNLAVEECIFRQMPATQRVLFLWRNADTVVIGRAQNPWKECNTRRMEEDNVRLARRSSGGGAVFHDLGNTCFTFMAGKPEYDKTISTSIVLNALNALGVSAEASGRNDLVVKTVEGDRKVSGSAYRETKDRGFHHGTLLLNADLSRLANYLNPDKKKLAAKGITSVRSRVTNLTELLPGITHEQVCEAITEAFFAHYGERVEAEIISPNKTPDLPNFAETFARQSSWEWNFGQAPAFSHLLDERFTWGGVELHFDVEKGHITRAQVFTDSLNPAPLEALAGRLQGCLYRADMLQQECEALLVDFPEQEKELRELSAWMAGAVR

In the case of “6,8-difluoro-7-hydroxycoumarin [Pacific Blue]”, the “pKa of 7-OH substituent” value [1] is listed as 3.7.
In the case of `[N-]=[N+]=NCc1cc(Cl)ccn1` [Azide 7, 2-Azidomethyl-4-chloropyridine], the “effect of ring substituent on CuAAC reaction” value [2] is reported as “dampened the accelerating effect”.
For `COc1ccnc(CN=[N+]=[N-])c1` [Azide 6, 2-Azidomethyl-4-methoxypyridine], the “effect of ring substituent on CuAAC reaction” value [2] was “further accelerated the CuAAC reaction”.
In the case of `[N-]=[N+]=NCc1ccc(C(=O)O)cn1` [Azide 4, 6-Azidomethylnicotinic acid], the “improvement in initial CuAAC rate over carbocyclic analog” value [2] is reported as 14 fold, the “time for CuAAC reaction to completion” value ([2]; THPTA absent, 100 and 40 uM Cu) is reported as ≤ 30 min and the “time for CuAAC reaction to completion” value ([2]; THPTA added, all three copper concentrations (10, 40, 100 μM)) is reported as ≤ 5 min.
For `[N-]=[N+]=NCCCCCCCC(=O)O` [8-azidooctanoic acid, reference compound], the Km (Wild-type LplA; [5]) is listed as 127 µM, the kcat (Wild-type LplA; [5]) is listed as 0.111 s⁻¹ and the “lipoylation of remaining LAP sites after azide labeling, relative to condition 3 (100%)” value (LAP-CFP-TM on HEK cells [3]) is listed as 37%. The “estimated extent of azide ligation” value (LAP-CFP-TM on HEK cells [3]) was 63%.
For `[N-]=[N+]=NCc1ccccn1` [Azide 2, 2-azidomethylpyridine], the “improvement in initial CuAAC rate over carbocyclic analog” value [2] was 43 fold.
For `O=C(O)CCCC[C@@H]1CCSS1` (racemic) [lipoic acid], the kcat (Wild-type LplA; lipoic acid ligation by wild-type LplA) is given as 0.22 s⁻¹.
In the case of `[N-]=[N+]=NCc1ccc(C(=O)NCCCCC(=O)O)cn1` [Picolyl azide 8, 5-(6-(Azidomethyl)nicotinamido)pentanoic acid], the “lipoylation of remaining LAP sites after azide labeling, relative to condition 3 (100%)” value (LAP-CFP-TM on HEK cells [3]) is reported as 19%, the “difference in ligation extent over 8-azidooctanoic acid ligation” value (LAP-CFP-TM on HEK cells [3]; 20 min labeling conditions) is reported as “at most 1.5 fold” and the “estimated extent of azide ligation” value (LAP-CFP-TM on HEK cells [3]) is reported as 81%. For the same compound, the “signal of picolyl azide ligation followed by fluorophore-alkyne relative to alkyne ligation followed by fluorophore-picolyl azide” value (LAP-CFP-TM on HEK cells [4]; 100 μM CuSO4, 500 μM THPTA, 5 min (FIG. 13)) was ~2.4 fold, the “boost of cell signal on replacement of 8-azidooctanoic acid, corrected for enzymatic ligation efficiencies” value (LAP-CFP-TM on HEK cells [4]; 10, 40, 100 μM Cu, THPTA or BTTAA, corrected) was ≤ 25 fold and the “signal relative to alkyl azide at 100 μM Cu (+THPTA), corrected value” (LAP-CFP-TM on HEK cells [4]; picolyl azide at 10 μM Cu (+THPTA)) was 1.6 fold. For the same compound, the “signal relative to alkyl azide at 100 μM Cu, corrected value” (LAP-CFP-TM on HEK cells [4]; picolyl azide at 40 μM Cu, BTTAA) was 3.9 fold.
In the case of `[N-]=[N+]=NCc1ccc(C(=O)O)cc1` [Azide 3, 4-azidomethylbenzoic acid, reference compound], the “time for CuAAC reaction to completion” value ([2]; THPTA added, 100 and 40 uM Cu) is reported as ≤ 30 min.

Source: patent US20150125904A1, “PROBE INCORPORATION MEDIATED BY ENZYMES” (Massachusetts Institute of Technology, priority 2012, published 2015)
